Assay results published in PubChem BioAssay AID179 (DTP/NCI, 2004).
The source made the active and inactive calls.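 The calls were made as follows: active = compounds giving half or more protection of infected cells from virus-caused growth loss, again on retest; inactive = the rest.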

Test system: CEM cells HIV-1 protection, formazan growth assay
Experiment: NCI AIDS Antiviral Assay
Conditions: for IC50: measured here: growth of uninfected CEM cells
How it was run: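 CEM (human) cells, HIV-1 infected vs uninfected, 5-point dosing, formazan growth read-out. Retest threshold 50% protection.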

Structure (SMILES) | EC50 [µM] | IC50 [µM] | outcome
Cc1ccc(NC(=S)N/N=C(/c2ccccc2)c2ccccn2)cc1 | > 0.2 | 0.105 | –
COc1ccc(N=c2ssc3c(=S)ssc23)cc1 | – | – | inactive
O=C1OC(CN2CCOCC2)CN1/N=C/c1ccc([N+](=O)[O-])o1 (configuration not stated) | > 200 | 41.7 | –
OCC(O)CC[CH2][Sn]([Br])([c]1ccccc1)[c]1ccccc1 (configuration not stated) | – | – | inactive
O=c1c(O)c(-c2ccc3c(c2)OCO3)oc2c(Cl)cc(Cl)cc12 | > 100 | > 100 | –
CC/C(=N/OC(=O)N(C)C)c1ccccc1 | > 200 | > 200 | –
CCCCCCCCCCOCC(COCCOCC(COCCCCCCCCCC)OS(=O)(=O)O)OS(=O)(=O)O (configuration not stated) | > 186 | 42.7 | –
O=C(NCc1cccc(C(F)(F)F)c1)c1cc2sccc2nc1C(F)(F)F | > 200 | > 200 | –
CC(C)CC1NC(CC(C)C)N2C(CC(C)C)N12 (configuration not stated) | > 39.8 | > 39.8 | –
COCCOCC(=O)N(CCn1ccc(NC(c2ccccc2)(c2ccccc2)c2ccccc2)nc1=O)CCn1cnc2nc(N)[nH]c(=O)c21 | 28.8 | 60.3 | –
Cc1cccc(SCc2nc3ccccc3c(C)[n+]2[O-])c1 | 13.5 | 52.5 | –
CCCCNC(C)(C)C(SSSC(C)=O)c1ccco1 (configuration not stated) | > 200 | 56.2 | –
Cc1ccc(C2(O)CSC(=NC34CC5CC(CC(C5)C3)C4)N2C(P(=O)(O)O)P(=O)(O)O)cc1 (configuration not stated) | > 200 | 40.7 | –
COc1ccc(NCC(=O)Nn2c(C)nc3ccc(S(=O)(=O)Nc4ccc(OC)cc4)cc3c2=O)cc1 | > 100 | > 100 | –
CCC1CC2C(=O)N(c3ccccc3)C(=O)C2c2[nH]c3ccccc3c21 (configuration not stated) | – | – | inactive
CC1CNC2(c3ccccc3)CSC=C(c3ccccc3)N12 (configuration not stated) | > 200 | 117 | –
O=C1C(=O)N(c2cc(Cl)ccc2Cl)C(=O)C(=O)C1c1nc2ccccc2s1 | – | – | inactive

Structure (SMILES) | EC50 [µM] | IC50 [µM] | outcome
Oc1cccc2c(Cl)ccnc12 | > 20 | 1.58 | –
CC(=O)OCC1OC(n2c(C#N)cc(=O)[nH]c2=O)CC1OC(C)=O (configuration not stated) | > 200 | 57.5 | –
Oc1ccc(Cl)cc1C1=NC(/N=C\c2ccccc2)=NC(c2ccccc2)C1 (configuration not stated) | > 200 | 8.91 | –
COc1ccc2[nH]c3c4c(c5cc(C(C)(C)C)ccc5c3c2c1)C(=O)N(c1ccccc1)C4=O | – | – | inactive
O=C(Nc1ccc(/C=C\c2ccc([N+](=O)[O-])cc2S(=O)(=O)O)c(S(=O)(=O)O)c1)OCc1ccccc1 | > 200 | > 200 | –
CCN(CC)CCN(CC)C(=O)COc1cc2c(O)c3c(O)c(C)c4c(c13)C(=O)C(C)(O/C=C/C(OC)C(C)C(OC(C)=O)C(C)C(O)C(C)C(O)C(C)/C=C/C=C(\C)C(=O)N2)O4 (configuration not stated) | > 200 | 35.5 | –
CC(=O)O[C@H]1CSC[C@@H](OC(C)=O)C1[N+](=O)[O-] (some centres not stated) | > 692 | 33.1 | –
CCN(CC)CC(=O)Nc1cccc(Cl)c1 | > 200 | > 200 | –
c1ccc(-c2cn3nc(N4CCOCC4)sc3n2)cc1 | > 200 | > 200 | –
C=C1CN(S(=O)(=O)c2ccc(C)cc2)CCCN(Cc2cccn2C)CCCN(S(=O)(=O)c2ccc(C)cc2)C1 | > 200 | 38.9 | –
CCc1c(-c2ccc(OC)cc2)oc(OC)c(C)c1=O | > 200 | 40.7 | –
CC(C)OC(=O)c1ccc(CCc2cc(O)c(Br)cc2O)cc1 | > 200 | 8.32 | –
COc1nc(N)c(N(C(C)=O)C(C)=O)c(=O)[nH]1 | – | – | inactive
CCCNC(=S)/N=C/c1c(O)c2ccccc2[nH]c1=O | > 200 | > 200 | –
COc1ccc(NC(=O)CC/C(CC(=O)C(C)(C)C)=N\NC(=O)C(N)=O)cc1 | > 93.3 | > 93.3 | –
CN(C)CCCCN1c2ccccc2Sc2ccc(C(=O)c3ccccc3)cc21 | > 200 | 6.61 | –
CCN(CC)/[N+]([O-])=N/OCOC | > 200 | > 200 | –
